Results from patent US11485742B2, “2-azaspiro[3.4]octane derivatives as M4 agonists” (NOVARTIS AG, priority 2019, dated 2022).
pEC50: −log10 of the molar value.

Target: T1, Cloned human M1 receptor (CHRM1) (Homo sapiens, UniProt P11229)
T1 construct: expressed in transfected cells; host or cells: HEK293
T1 sequence (P11229 1-460): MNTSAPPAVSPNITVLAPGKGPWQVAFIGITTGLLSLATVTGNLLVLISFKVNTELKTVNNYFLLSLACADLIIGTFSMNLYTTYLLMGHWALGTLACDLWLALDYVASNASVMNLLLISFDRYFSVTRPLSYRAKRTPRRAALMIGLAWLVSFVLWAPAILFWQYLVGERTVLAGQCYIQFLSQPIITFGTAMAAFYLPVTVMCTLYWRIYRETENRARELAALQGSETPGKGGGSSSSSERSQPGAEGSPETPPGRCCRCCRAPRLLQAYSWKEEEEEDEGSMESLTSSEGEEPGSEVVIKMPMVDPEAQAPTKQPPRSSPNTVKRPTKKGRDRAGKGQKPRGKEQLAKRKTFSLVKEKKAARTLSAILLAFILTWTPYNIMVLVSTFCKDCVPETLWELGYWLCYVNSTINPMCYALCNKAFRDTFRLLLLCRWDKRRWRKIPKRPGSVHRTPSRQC
Assay: CHRM1 Ca++ Flux Assay (HEK293 M1 cells, agonist mode)
Assay type: cell-based
Conditions: for Emax: read-out: M1 FDSS PA %; for pEC50: geometric mean if tested more than once, read-out: M1 FDSS EC50
Description: The above examples were characterized by measuring the intracellular mobilization of Ca^++ ions caused by signaling events mediated by the receptor. The Intra-cellular Calcium flux levels were captured by the highly sensitive Ca^++ indicator, Calcium Assay Kit (BD Biosciences; Catalog Number 640178. The fluorescent activity from all receptors were monitored by the fluorescent imager, FDSS 7000EX (Hamamatsu) over a span of 3 minutes. The change in Calcium flux was readily captured upon activation with the muscarinic orthosteric agonist, Carbachol.
Cloned human M1 receptor (CHRM1) was stably expressed in HEK293 cells and were grown and maintained in a monolayer culture with DMEM/High Glucose (Life Technologies) supplemented with 10% Fetal Bovine Serum, 1×Pen-Strep, and 0.5 mg/mL Geneticin in a humidified atmosphere (5% CO2) at 37° C. The cultures were grown to 90% confluency in T150 flasks (Corning) and washed with 1×DPBS and lifted with 0.05% Trypsin (Life Technologies). The cells were then spun (1K rpm, 3 minutes) and frozen using Recovery Cell Culture Freezing Media (Gibco Technologies). Cells were stored in liquid nitrogen and thawed a day before the assay.
Prior to the day of the assay, stable HEK293 M1 cells were thawed and plated on 384 well black walled clear bottom TC treated plates (Greiner Cat #781091) at 25K cells/well with DMEM/High Glucose supplemented with 10% FBS (Hyclone) Pen-Strep (Life Technologies) and kept overnight in a humidified atmosphere (5% CO2) at 37° C. The following day, cells were loaded with 20 uL Ca^++ dye (BD Biosciences) using Loading Buffer (HBSS +Ca/+Mg, 20 mM HEPES) and placed back in cell incubator for a minimum of 1 hour. The dye was replaced with 45 μL Assay Buffer (HBSS −Ca/−Mg, 20 mM HEPES) and kept at room temperature prior to running on cell imager. Compounds were prepared in Assay Buffer and 5 uL was added to the cells. The FDSS 7000EX (Hamamatsu) was used to acquire Ca++ traces for 3 minutes from cells treated with 11 point dose in triplicate in order to generate dose response curves in agonist mode. All compounds were serially diluted in DMSO then prepared in Assay Buffer for Ca^++ flux studies. The dose response curves were generated from the average of triplicate wells obtained from each data point and used a non-linear regression of four parameter dose response algorithm. The Percent Activity (PA) was measured to EC100 of Carbachol.
If an Example was tested more than once in an assay, then the values below represent the geometric mean of the results from each independent experiment.

| Compound | Emax (Percent Activity (PA)) | pEC50 | M1 FDSS PA % (Percent Activity (PA)) |
| --- | --- | --- | --- |
| Fc1cc(F)c(OC2COC2)c(C2CCN([C@@H]3COC4(C3)CN(c3nnco3)C4)CC2)c1 [Example 2EE, (S)-7-(4-(3,5-difluoro-2-(oxetan-3-yloxy)phenyl)piperidin-1-yl)-2-(1,3,4-oxadiazol-2-yl)-5-oxa-2-azaspiro[3.4]octane] | 95% | 5.63 | – |
| Fc1cc(OC2CCOCC2)c(C2CCN([C@@H]3COC4(C3)CN(c3nnco3)C4)CC2)cc1F [Example 2GG, (S)-7-(4-(4,5-difluoro-2-((tetrahydro-2H-pyran-4-yl)oxy)phenyl)piperidin-1-yl)-2-(1,3,4-oxadiazol-2-yl)-5-oxa-2-azaspiro[3.4]octane] | 64% | 5.54 | – |
| C[C@H](Oc1ccc(F)cc1C1CCN([C@@H]2COC3(C2)CN(c2nnco2)C3)CC1)C1CCOCC1 [Example 2X, (S)-7-(4-(5-fluoro-2-((S)-1-(tetrahydro-2H-pyran-4-yl)ethoxy)phenyl)piperidin-1-yl)-2-(1,3,4-oxadiazol-2-yl)-5-oxa-2-azaspiro[3.4]octane or(S)-7-(4-(5-fluoro-2-((R)-1-(tetrahydro-2H-pyran-4-yl)ethoxy)phenyl)piperidin-1-yl)-2-(1,3,4-oxadiazol-2-yl)-5-oxa-2-azaspiro[3.4]octane] | – | 4.95 | 42% |
| Fc1ccc(OCC2C3COCC32)c(C2CCN([C@@H]3COC4(C3)CN(c3nnco3)C4)CC2)c1 (stereo partly drawn) [Example 2Z, (7S)-7-(4-(2-((3-oxabicyclo[3.1.0]hexan-6-yl)methoxy)-5-fluorophenyl)piperidin-1-yl)-2-(1,3,4-oxadiazol-2-yl)-5-oxa-2-azaspiro[3.4]octane] | 11% | 5.30 | – |
| Fc1ccc(C2CCOCC2)c(C2CCN([C@@H]3COC4(C3)CN(c3nnco3)C4)CC2)c1 [Example 3D, (S)-7-(4-(5-fluoro-2-(tetrahydro-2H-pyran-4-yl)phenyl)piperidin-1-yl)-2-(1,3,4-oxadiazol-2-yl)-5-oxa-2-azaspiro[3.4]octane] | 75% | 5.85 | – |
| c1ccc(C2CCN([C@@H]3COC4(C3)CN(c3nnco3)C4)CC2)c(CC2CCOCC2)c1 [Example 3G, (S)-2-(1,3,4-oxadiazol-2-yl)-7-(4-(2-((tetrahydro-2H-pyran-4-yl)methyl)phenyl)piperidin-1-yl)-5-oxa-2-azaspiro[3.4]octane] | 44% | 5.14 | – |
| Fc1ccc(OC2COC2)c(C2CCN([C@@H]3COC4(C3)CN(c3ncco3)C4)CC2)c1 [Example 4A, (S)-7-(4-(5-fluoro-2-(oxetan-3-yloxy)phenyl)piperidin-1-yl)-2-(oxazol-2-yl)-5-oxa-2-azaspiro[3.4]octane] | 84% | 6.63 | – |
| Fc1ccc(OC[C@H]2COCCO2)c(C2CCN([C@@H]3COC4(C3)CN(c3ncco3)C4)CC2)c1 [Example 4B, (S)-7-(4-(2-(((R)-1,4-dioxan-2-yl)methoxy)-5-fluorophenyl)piperidin-1-yl)-2-(oxazol-2-yl)-5-oxa-2-azaspiro[3.4]octane] | 117% | 6.37 | – |
| Fc1ccc(O[C@@H]2CCOC2)c(C2CCN([C@@H]3COC4(C3)CN(c3ncco3)C4)CC2)c1 [Example 4D, (S)-7-(4-(5-fluoro-2-(((R)-tetrahydrofuran-3-yl)oxy)phenyl)piperidin-1-yl)-2-(oxazol-2-yl)-5-oxa-2-azaspiro[3.4]octane] | 95% | 6.13 | – |
| c1ccc(C2CCN([C@@H]3COC4(C3)CN(c3ncco3)C4)CC2)c(O[C@@H]2CCOC2)c1 [Example 4F, (S)-2-(oxazol-2-yl)-7-(4-(2-(((R)-tetrahydrofuran-3-yl)oxy)phenyl)piperidin-1-yl)-5-oxa-2-azaspiro[3.4]octane] | 90% | 6.27 | – |
| CC(C)(O)COc1ccc(F)cc1C1CCN([C@@H]2COC3(C2)CN(c2ncco2)C3)CC1 [Example 4K, (S)-1-(4-fluoro-2-(1-(2-(oxazol-2-yl)-5-oxa-2-azaspiro[3.4]octan-7-yl)piperidin-4-yl)phenoxy)-2-methylpropan-2-ol] | 60% | 6.35 | – |
| COCCOc1ccc(F)cc1C1CCN([C@@H]2COC3(C2)CN(c2ncco2)C3)CC1 [Example 4L, (S)-7-(4-(5-fluoro-2-(2-methoxyethoxy)phenyl)piperidin-1-yl)-2-(oxazol-2-yl)-5-oxa-2-azaspiro[3.4]octane] | 66% | 6.47 | – |

More lines, in order of rising pEC50, values ahead:

| Emax (Percent Activity (PA)) | pEC50 | M1 FDSS PA % (Percent Activity (PA)) | Compound |
| --- | --- | --- | --- |
| 78% | 5.41 | – | c1ccc(C2CCN([C@@H]3COC4(C3)CN(c3nnco3)C4)CC2)c(C2CCOCC2)c1 [Example 3C, (S)-2-(1,3,4-oxadiazol-2-yl)-7-(4-(2-(tetrahydro-2H-pyran-4-yl)phenyl)piperidin-1-yl)-5-oxa-2-azaspiro[3.4]octane] |
| 49% | 5.55 | – | c1ccc(C2CCN([C@@H]3COC4(C3)CN(c3ncco3)C4)CC2)c(OC2CC3(COC3)C2)c1 [Example 4M, (S)-7-(4-(2-((2-oxaspiro[3.3]heptan-6-yl)oxy)phenyl)piperidin-1-yl)-2-(oxazol-2-yl)-5-oxa-2-azaspiro[3.4]octane] |
| 62% | 5.76 | – | Fc1ccc(OC2CC3(COC3)C2)c(C2CCN([C@@H]3COC4(C3)CN(c3ncco3)C4)CC2)c1 [Example 4G, (S)-7-(4-(2-((2-oxaspiro[3.3]heptan-6-yl)oxy)-5-fluorophenyl)piperidin-1-yl)-2-(oxazol-2-yl)-5-oxa-2-azaspiro[3.4]octane] |
| 72% | 5.78 | – | c1ccc(C2CCN([C@@H]3COC4(C3)CN(c3ncco3)C4)CC2)c(OC2CCOCC2)c1 [Example 4J, (S)-2-(oxazol-2-yl)-7-(4-(2-((tetrahydro-2H-pyran-4-yl)oxy)phenyl)piperidin-1-yl)-5-oxa-2-azaspiro[3.4]octane] |
| 67% | 5.95 | – | Fc1cc(F)c(OCC2COC2)c(C2CCN([C@@H]3COC4(C3)CN(c3nnco3)C4)CC2)c1 [Example 2DD, (S)-7-(4-(3,5-difluoro-2-(oxetan-3-ylmethoxy)phenyl)piperidin-1-yl)-2-(1,3,4-oxadiazol-2-yl)-5-oxa-2-azaspiro[3.4]octane] |
| 75% | 6.01 | – | Fc1ccc(OC2CCOCC2)c(C2CCN([C@@H]3COC4(C3)CN(c3ncco3)C4)CC2)c1 [Example 4E, (S)-7-(4-(5-fluoro-2-((tetrahydro-2H-pyran-4-yl)oxy)phenyl)piperidin-1-yl)-2-(oxazol-2-yl)-5-oxa-2-azaspiro[3.4]octane] |
| 63% | 6.13 | – | c1ccc(C2CCN([C@@H]3COC4(C3)CN(c3ncco3)C4)CC2)c(O[C@H]2CCOC2)c1 [Example 4H, (S)-2-(oxazol-2-yl)-7-(4-(2-(((S)-tetrahydrofuran-3-yl)oxy)phenyl)piperidin-1-yl)-5-oxa-2-azaspiro[3.4]octane] |
| 79% | 6.42 | – | c1ccc(C2CCN([C@@H]3COC4(C3)CN(c3ncco3)C4)CC2)c(OC2COC2)c1 [Example 4C, (S)-2-(oxazol-2-yl)-7-(4-(2-(oxetan-3-yloxy)phenyl)piperidin-1-yl)-5-oxa-2-azaspiro[3.4]octane] |
| 70% | 6.58 | – | Fc1cc(OC2COC2)c(C2CCN([C@@H]3COC4(C3)CN(c3nnco3)C4)CC2)cc1F [Example 2FF, (S)-7-(4-(4,5-difluoro-2-(oxetan-3-yloxy)phenyl)piperidin-1-yl)-2-(1,3,4-oxadiazol-2-yl)-5-oxa-2-azaspiro[3.4]octane] |
| 82% | 6.64 | – | COc1ccc(F)cc1C1CCN([C@@H]2COC3(C2)CN(c2ncco2)C3)CC1 [Example 4I, (S)-7-(4-(5-fluoro-2-methoxyphenyl)piperidin-1-yl)-2-(oxazol-2-yl)-5-oxa-2-azaspiro[3.4]octane] |
